The test system of this assay is P388 leukemia ip, CD2F1 mice, survival T/C. Kind of assay: NCI In Vivo Anticancer Drug Screen. Data for tumor model P388 Leukemia (intraperitoneal) in CD2F1 (CDF1) mice. The settings on record: endpoint: median survival time, higher = longer survival. The method, boiled down: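 Mice carrying the transplanted tumor received test compound or vehicle. Survival was recorded in each group, and the value is the treated-group measurement divided by that of the vehicle-treated control group.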

The mark [1] stands for this setting: dose: 50.0 mg/kg/injection, schedule: Q01DX009 (ip), vehicle: Klucel (hydroxypropylcellulose) (HPC).
Where [2] appears, read: dose: 100.0 mg/kg/injection, schedule: Q01DX009 (ip), vehicle: Klucel (hydroxypropylcellulose) (HPC).
Where [3] appears, read: dose: 200.0 mg/kg/injection, schedule: Q01DX009 (ip), vehicle: Klucel (hydroxypropylcellulose) (HPC).
Where [4] appears, read: dose: 6.25 mg/kg/injection, schedule: Q01DX005 (ip), vehicle: Klucel (hydroxypropylcellulose) (HPC).
[5] abbreviates: dose: 12.5 mg/kg/injection, schedule: Q01DX005 (ip), vehicle: Klucel (hydroxypropylcellulose) (HPC).
Setting [6] is: dose: 50.0 mg/kg/injection, schedule: Q01DX005 (ip), vehicle: Klucel (hydroxypropylcellulose) (HPC).
[7] abbreviates: dose: 50.0 mg/kg/injection, schedule: Q01DX005 (ip), vehicle: saline with Tween-80.
Where [8] appears, read: dose: 200.0 mg/kg/injection, schedule: Q01DX005 (ip), vehicle: saline with Tween-80.
Setting [9] is: dose: 25.0 mg/kg/injection, schedule: Q01DX005 (ip), vehicle: Klucel (hydroxypropylcellulose) (HPC).
The mark [10] stands for this setting: dose: 60.0 mg/kg/injection, schedule: Q01DX005 (ip), vehicle: saline with Tween-80.
Where [11] appears, read: dose: 120.0 mg/kg/injection, schedule: Q01DX005 (ip), vehicle: saline with Tween-80.
Where [12] appears, read: dose: 240.0 mg/kg/injection, schedule: Q01DX005 (ip), vehicle: saline with Tween-80.
[13] abbreviates: dose: 100.0 mg/kg/injection, schedule: Q01DX005 (ip), vehicle: Klucel (hydroxypropylcellulose) (HPC).

Among the data in PubChem BioAssay AID330 (DTP/NCI, 2004) are T/C values, retold here.

“And” between values parts separate entries of the source, which are not always exact repeats. Equal entries are not always repeated. Inconclusive results and toxic doses are left out.

For `C[N+]1=CN(S(=O)(=O)C2C=CC=CC=C2)CC1(C)C`, the T/C was 100 % of control (dose: 100.0 mg/kg/injection, schedule: Q04DX003 (ip), vehicle: saline); 107 % of control (dose: 200.0 mg/kg/injection, schedule: Q04DX003 (ip), vehicle: saline); 97 % of control (dose: 400.0 mg/kg/injection, schedule: Q04DX003 (ip), vehicle: saline).
In the case of `CCCCCc1ccccc1`, the T/C is 106 % of control (dose: 100.0 mg/kg/injection, schedule: Q01DX009 (ip), vehicle: saline with Tween-80) and 109 % of control (dose: 200.0 mg/kg/injection, schedule: Q01DX009 (ip), vehicle: saline with Tween-80).
Turning to `ClC1=C(Cl)C(=C2CCCC2)C(Cl)=C1Cl`, the T/C was 100 % of control under setting [1], 100 % of control under setting [2] and 87 % of control under setting [3].
For the molecule `CCN=P1(N(C(C)C)C(C)C)N(CC)N=NN1C(C)(C)C` (centres undefined), the T/C by setting is: (dose: 1.56 mg/kg/injection, schedule: Q01DX005 (ip), vehicle: Klucel (hydroxypropylcellulose) (HPC)) 102 % of control; (dose: 3.12 mg/kg/injection, schedule: Q01DX005 (ip), vehicle: Klucel (hydroxypropylcellulose) (HPC)) 104 % of control; under setting [4], 100 % of control; under setting [5], 104 % of control; under setting [6], 111 % of control.
For the molecule `CCCCCCCCCCCCCC(=O)Oc1ccc[nH]c1=O`, the T/C reads like this: under setting [7], 91 % of control; (dose: 100.0 mg/kg/injection, schedule: Q01DX005 (ip), vehicle: saline with Tween-80) 90 % of control; under setting [8], 90 % of control; (dose: 400.0 mg/kg/injection, schedule: Q01DX005 (ip), vehicle: saline with Tween-80) 98 % of control.
In the case of `CN(C)C(=Nc1ccc(NC(=O)c2ccc(C(=O)Nc3ccc(N=C(Nc4ccccc4)N(C)C)cc3)cc2)cc1)Nc1ccccc1`, the T/C is 101 % of control under setting [4], 101 % of control under setting [5] and 100 % of control under setting [9].
Regarding `O=C(NO)c1coc2ccccc2c1=O`, the T/C by setting is: under setting [10], 101 % of control; under setting [11], 103 % of control.
For the molecule `Oc1cc2c(cc1C(c1ccc3c(c1)OCO3)N1CCOCC1)OCO2` (centres undefined), the T/C reads like this: under setting [10], 118 % of control; under setting [11], 106 % of control; under setting [12], 111 % of control.
With `O=C(O)CSc1nc2ccc(N3C(=O)C4C5C=CC(C5)C4C3=O)cc2s1` (centres undefined), the T/C under setting [1] was 90 % of control, the T/C under setting [2] is 105 % of control and the T/C under setting [3] was 99 % of control.
Regarding `COc1cccnc1/C=N/NC(N)=S`, where the note is “dose: 3.13 mg/kg/injection, schedule: Q01DX009 (ip), vehicle: saline with Tween-80”, the T/C is 124 % of control.
With `CC(C)C1=C(O)C2=C(C(=O)C1=O)C1(C)CCCC(C)(C)C1C(O)C2OC=O` (centres undefined), the T/C is 93 % of control under setting [5], 109 % of control under setting [9], 107 % of control under setting [6] and 111 % of control under setting [13].
With `Nc1ccc(N2CCSCC2)nc1`, the T/C (dose: 50.0 mg/kg/injection, schedule: Q01DX009 (ip), vehicle: saline) was 104 % of control; the T/C (dose: 100.0 mg/kg/injection, schedule: Q01DX009 (ip), vehicle: saline) was 101 % of control; the T/C (dose: 200.0 mg/kg/injection, schedule: Q01DX009 (ip), vehicle: saline) was 96 % of control.
As for `CC(=O)NC(CCO)C(N)=O` (centres undefined), the T/C is 99 % of control and 100 % of control (dose: 12.5 mg/kg/injection, schedule: Q01DX009 (ip), vehicle: water); 106 % of control (dose: 25.0 mg/kg/injection, schedule: Q01DX009 (ip), vehicle: water); 107 % of control and 120 % of control (dose: 50.0 mg/kg/injection, schedule: Q01DX009 (ip), vehicle: water); 111 % of control and 94 % of control (dose: 100.0 mg/kg/injection, schedule: Q01DX009 (ip), vehicle: water); 100 % of control and 101 % of control (dose: 200.0 mg/kg/injection, schedule: Q01DX009 (ip), vehicle: water).
With `Nc1nc(-c2cc(Cl)cc(Cl)c2)cc(-c2cc(-c3cc(Cl)cc(Cl)c3)nc(N)n2)n1`, the T/C is 100 % of control under setting [10], 106 % of control under setting [11] and 96 % of control under setting [12].
On the same counts, the results for `O=C(CCCC(=O)Nc1cccc([N+](=O)[O-])c1)CC(=O)c1ccc([N+](=O)[O-])cc1` are 100 % of control, 102 % of control and 103 % of control.
Turning to `CCO[C@H]1c2cc3c(cc2[C@@H](c2cc(OC)c(OC)c(OC)c2)[C@H]2C(=O)OC[C@@H]21)OCO3`, the T/C reads like this: under setting [6], 96 % of control; under setting [13], 112 % of control.
In the case of `O=C1c2cccnc2C(=O)N1Cc1ccccc1`, the T/C was 95 % of control (dose: 100.0 mg/kg/injection, schedule: Q04DX003 (ip), vehicle: saline with Tween-80); 95 % of control (dose: 200.0 mg/kg/injection, schedule: Q04DX003 (ip), vehicle: saline with Tween-80); 90 % of control (dose: 400.0 mg/kg/injection, schedule: Q04DX003 (ip), vehicle: saline with Tween-80).
Regarding `O=C(NC(O)C(Cl)(Cl)Cl)c1ccccc1` (centres undefined), the T/C by setting is: (dose: 12.5 mg/kg/injection, schedule: Q01DX005 (ip), vehicle: saline with Tween-80) 95 % of control; (dose: 25.0 mg/kg/injection, schedule: Q01DX005 (ip), vehicle: saline with Tween-80) 102 % of control; under setting [7], 100 % of control; under setting [8], 96 % of control.
With `CC(/C=N/Nc1ccccc1)=N\N=c1/scc(-c2ccccc2)n1Cc1ccccc1`, the T/C by setting is: (dose: 100.0 mg/kg/injection, schedule: Q01DX001 (ip), vehicle: saline with Tween-80) 93 % of control; (dose: 200.0 mg/kg/injection, schedule: Q01DX001 (ip), vehicle: saline with Tween-80) 97 % of control; (dose: 400.0 mg/kg/injection, schedule: Q01DX001 (ip), vehicle: saline with Tween-80) 93 % of control.
For the molecule `CN(C)CCOC1=Nc2ccccc2O/C1=C/c1ccccc1`, the T/C under setting [1] is 100 % of control and the T/C under setting [2] was 111 % of control.
Consider `CSC(=S)c1c(O)ccc2ccccc12`, for which the T/C (dose: 100.0 mg/kg/injection, schedule: Q04DX002 (ip), vehicle: saline with Tween-80) was 102 % of control.
Take `CC1(c2ccc(N)cc2)NC(=O)NC1=O` (centres undefined): the T/C was 99 % of control under setting [1] and 96 % of control under setting [2].
With `CN1CCC(/C(=N/O)c2ccccc2)(c2ccccc2)CC1`, the T/C reads like this: (dose: 50.0 mg/kg/injection, schedule: Q01DX005 (ip), vehicle: Klucel + Tween-80) 98 % of control; (dose: 100.0 mg/kg/injection, schedule: Q01DX005 (ip), vehicle: Klucel + Tween-80) 91 % of control; (dose: 200.0 mg/kg/injection, schedule: Q01DX005 (ip), vehicle: Klucel + Tween-80) 91 % of control.
Take `O=C1NC(=O)N(c2ccccc2)C(=O)/C1=C/c1ccc2c(c1)CCC2`: the T/C was 95 % of control (dose: 60.0 mg/kg/injection, schedule: Q01DX005 (ip), vehicle: Klucel (hydroxypropylcellulose) (HPC)); 97 % of control (dose: 120.0 mg/kg/injection, schedule: Q01DX005 (ip), vehicle: Klucel (hydroxypropylcellulose) (HPC)); 108 % of control (dose: 240.0 mg/kg/injection, schedule: Q01DX005 (ip), vehicle: Klucel (hydroxypropylcellulose) (HPC)).
For `Nc1nc(-c2ccncc2)cc(-c2cc(-c3ccncc3)nc(N)n2)n1`, the T/C (dose: 60.0 mg/kg/injection, schedule: Q01DX005 (ip), vehicle: saline) was 102 % of control and the T/C (dose: 120.0 mg/kg/injection, schedule: Q01DX005 (ip), vehicle: saline) was 96 % of control.
In the case of `NN/C(N)=N/S(=O)(=O)c1ccccc1`, the T/C reads like this: under setting [6], 107 % of control; under setting [13], 102 % of control.
